Values after ≈ are worked out from the molar mass of the structure shown.
Columns and labels:
Moraxella catarrhalis = assay: Antibacterial activity against Moraxella catarrhalis A-894 by broth microdilution method; type: functional
Streptococcus pneumoniae [1] = assay: Antibacterial activity against Streptococcus pneumoniae ATCC 49619 by broth microdilution method; type: functional
Enterococcus faecium = assay: Antibacterial activity against vancomycin/fluoroquinolone-resistant Enterococcus faecium A-949 harboring topoisomerase gyrA E88K mutant/parC S80R mutant by broth microdilution method; type: functional
[2] = Inhibition of Haemophilus influenzae DNA gyrase subunit GyrA/GyrB supercoiling activity expressed in Escherichia coli BL21 (DE3) using relaxed pBR322 DNA as substrate after 1 hr mins by agarose gel electrophoresis
DNA gyrase = DNA gyrase (Staphylococcus aureus, UniProt P0A0K8+P20831)
[3] = Inhibition of Escherichia coli DNA topoisomerase 4 subunit ParC/ParE relaxation expressed in Escherichia coli BL21 (DE3) using supercoiled pBR322 DNA as substrate after 1 hr by agarose gel electrophoresis
[4] = Inhibition of Escherichia coli N-terminal His6-tagged DNA gyrase subunit GyrA/GyrB supercoiling activity expressed in Escherichia coli BL21 (DE3) using relaxed pBR322 DNA as substrate after 1 hr by agarose gel electrophoresis
[5] = Inhibition of fluoroquinolone-resistant Staphylococcus aureus clinical isolate DNA gyrase subunit GyrB/GyrA S84L mutant supercoiling activity using relaxed pBR322 DNA as substrate after 1 hr by agarose gel electrophoresis
Escherichia coli [6] = assay: Antibacterial activity against TolC deficient Escherichia coli by broth microdilution method; type: functional
[7] = Inhibition of Haemophilus influenzae DNA topoisomerase 4 subunit ParC/ParE relaxation expressed in Escherichia coli BL21 (DE3) using supercoiled pBR322 DNA as substrate after 1 hr mins by agarose gel electrophoresis
Staphylococcus aureus [8] = assay: Antibacterial activity against methicillin/fluoroquinolone-resistant Staphylococcus aureus A-798 harboring topoisomerase gyrA S84L mutant/grlA S80F/Glu84V mutant by broth microdilution method; type: functional
[9] = Inhibition of Streptococcus pneumoniae DNA gyrase subunit GyrA/GyrB supercoiling activity expressed in Escherichia coli BL21 (DE3) using relaxed pBR322 DNA as substrate after 1 hr mins by agarose gel electrophoresis
Staphylococcus aureus [10] = assay: Antibacterial activity against methicillin-sensitive Staphylococcus aureus A-1178 infected in neutropenic mouse assessed as change in bacterial burden in thighs at 30 mg/kg, po administered every 2.75 hrs for 2 times measured 6.5 hrs post infection; type: functional
Staphylococcus aureus [11] = assay: Antibacterial activity against Staphylococcus aureus ATCC 29213 by broth microdilution method; type: functional
Enterococcus faecalis = assay: Antibacterial activity against Enterococcus faecalis ATCC 29212 by broth microdilution method; type: functional
Escherichia coli [12] = assay: Antibacterial activity against Escherichia coli ATCC 25922 by broth microdilution method; type: functional
Streptococcus pneumoniae [13] = assay: Antibacterial activity against fluoroquinolone-resistant Streptococcus pneumoniae A-70 harboring topoisomerase gyrA S81F mutant/parc S79F mutant/parE I440V mutant by broth microdilution method; type: functional
Staphylococcus aureus [14] = assay: Selectivity ratio of IC50 for Staphylococcus aureus topoisomerase 4 subunit ParC/ParE relaxation to IC50 for Staphylococcus aureus N-terminal His6-tagged DNA gyrase subunit GyrA/GyrB supercoiling activity
Streptococcus pyogenes = assay: Antibacterial activity against Streptococcus pyogenes ATCC 19615 by broth microdilution method; type: functional
Haemophilus influenzae = assay: Antibacterial activity against Haemophilus influenzae A-921 by broth microdilution method; type: functional
[15] = Inhibition of Staphylococcus aureus topoisomerase 4 subunit ParC/ParE relaxation expressed in Escherichia coli BL21 (DE3) using supercoiled pBR322 DNA as substrate after 1 hr by agarose gel electrophoresis
[16] = target: DNA topoisomerase 2-alpha (Homo sapiens, UniProt P11388); assay: Inhibition of human DNA topoisomerase 2-alpha
Escherichia coli [17] = assay: Selectivity ratio of IC50 for Escherichia coli DNA topoisomerase 4 subunit ParC/ParE relaxation to IC50 for Escherichia coli N-terminal His6-tagged DNA gyrase subunit GyrA/GyrB supercoiling activity
[18] = Inhibition of Streptococcus pneumoniae DNA topoisomerase 4 subunit ParC/ParE relaxation expressed in Escherichia coli BL21 (DE3) using supercoiled pBR322 DNA as substrate after 1 hr mins by agarose gel electrophoresis
[19] = AUC in Wistar rat at 2 mg/kg, po administered as suspension up to 24 hrs by LC-MS/MS analysis; type: ADME, organism-based; set-up: dose 2 mg/kg, time < 24 hr, route oral; conditions: in vivo
Mus musculus = assay: Unbound AUC in mouse at 30 mg/kg, po after 24 hrs by LC-MS/MS analysis; type: ADME, organism-based; conditions: in vivo
Staphylococcus aureus [20] = assay: Antibacterial activity against methicillin-sensitive Staphylococcus aureus A-1178 infected in neutropenic mouse assessed as change in bacterial burden in thighs at 10 mg/kg, po administered every 2.75 hrs for 2 times measured 6.5 hrs post infection; type: functional
[21] = Solubility of compound in citrate buffer at pH 4; type: physicochemical
[22] = Volume of distribution in steady state in Wistar rat at 0.5 mg/kg, iv administered as solution up to 24 hrs by LC-MS/MS analysis; type: ADME, organism-based; conditions: in vivo, read-out: Vdss
[23] = Octanol-phosphate buffer partition coefficient, logD of compound at pH 7.4 by LC/UV analysis; type: physicochemical
[24] = Oral bioavailability in Wistar rat at 2 mg/kg administered as suspension up to 24 hrs by LC-MS/MS analysis; type: ADME, organism-based; conditions: in vivo
Staphylococcus aureus [25] = assay: Antibacterial activity against methicillin-sensitive Staphylococcus aureus A-1178 infected in neutropenic mouse thigh infection model assessed as decrease in bacterial load in thighs administered po every 5.5 hrs for 4 times measured after 24 hrs; type: functional, organism-based
[26] = Clearance in Wistar rat at 0.5 mg/kg, iv administered as solution up to 24 hrs by LC-MS/MS analysis; type: ADME, organism-based; conditions: in vivo
[27] = Protein binding to mouse plasma by rapid equilibrium dialysis method; type: ADME, cell-free; conditions: read-out: PPB (converted)
[28] = Inhibition of Escherichia coli DNA gyrase subunit GyrA/GyrB R136H mutant supercoiling activity expressed in Escherichia coli BL21 (DE3) using relaxed pBR322 DNA as substrate after 1 hr mins by agarose gel electrophoresis
Staphylococcus aureus [29] = assay: Antibacterial activity against methicillin-sensitive Staphylococcus aureus A-1178 by broth microdilution method; type: functional
[30] = Half life in Wistar rat at 0.5 mg/kg, iv administered as solution up to 24 hrs by LC-MS/MS analysis; type: ADME, organism-based; conditions: in vivo
[31] = Cmax in Wistar rat at 2 mg/kg, po administered as suspension up to 24 hrs by LC-MS/MS analysis; type: ADME, organism-based; set-up: dose 2 mg/kg, route oral; conditions: in vivo
[32] = Tmax in Wistar rat at 2 mg/kg, po administered as suspension up to 24 hrs by LC-MS/MS analysis; type: ADME, organism-based; conditions: in vivo
[33] = AUC in mouse at 30 mg/kg, po after 24 hrs by LC-MS/MS analysis; type: ADME, organism-based; set-up: time < 24 hr, dose 30 mg/kg, route oral; conditions: in vivo
[34] = Solubility of compound in phosphate buffer at pH 7; type: physicochemical
[35] = AUC in Wistar rat at 0.5 mg/kg, iv administered as solution up to 24 hrs by LC-MS/MS analysis; type: ADME, organism-based; set-up: dose 0.5 mg/kg, time < 24 hr, route intravenous; conditions: in vivo
hERG (KCNH2) = hERG (KCNH2) (Homo sapiens, UniProt Q12809); assay: Inhibition of human ERG expressed in CHO cells at 10 uM after 3 mins at -80 mV holding potential by Qpatch assay; type: cell-based; conditions: CHO cells expressing human ERG

Compound	MIC (Moraxella catarrhalis) [µg/mL]	MIC (Streptococcus pneumoniae [1]) [µg/mL]	MIC (Enterococcus faecium) [µg/mL]	IC50 (DNA gyrase) [nM]	IC50 [3] [nM]	IC50 [4] [nM]	IC50 [5] [nM]	MIC (Escherichia coli [6]) [µg/mL]	IC50 [7] [nM]	MIC (Staphylococcus aureus [8]) [µg/mL]	IC50 [9] [nM]	Activity (Staphylococcus aureus [10]) [deltalog10CFU]	MIC (Staphylococcus aureus [11]) [µg/mL]	MIC (Enterococcus faecalis) [µg/mL]	MIC (Escherichia coli [12]) [µg/mL]	MIC (Streptococcus pneumoniae [13]) [µg/mL]	MIC (Streptococcus pyogenes) [µg/mL]	MIC (Haemophilus influenzae) [µg/mL]	IC50 [15] [nM]	IC50 [16] [nM]	also measured
CCNC(=O)Nc1cc2c(-c3ccnc(C)c3)ccc(Nc3ccc(C)nc3)c2cn1	0.25 (≈ 0.606 µM)	0.125 (≈ 0.303 µM)	0.06 (≈ 0.145 µM)	8	2000	30	< 4	0.5 (≈ 1.21 µM)	125	≤ 0.03	125	-0.2	≤ 0.03	≤ 0.03	> 16	0.125 (≈ 0.303 µM)	0.125 (≈ 0.303 µM)	0.25 (≈ 0.606 µM)	125	> 256000	IC50 [2]: 30 nM; Ratio IC50 (Staphylococcus aureus [14]): 16; Ratio IC50 (Escherichia coli [17]): 60; IC50 [18]: 30 nM
CCNC(=O)Nc1cc2c(-c3ccnc(C)c3)ccc(CNC(=O)OC)c2cn1	0.5 (≈ 1.27 µM)	0.5 (≈ 1.27 µM)	1 (≈ 2.54 µM)	8	8000	30	< 4	1 (≈ 2.54 µM)	2000	0.06 (≈ 0.152 µM)	500	-3.5	0.06 (≈ 0.152 µM)	0.25 (≈ 0.635 µM)	> 16	1 (≈ 2.54 µM)	0.5 (≈ 1.27 µM)	2 (≈ 5.08 µM)	2000	> 256000	AUC at 24 h [19]: 319 ng·h/mL; fAUC (Mus musculus): 1590 ng·h/mL; Activity (Staphylococcus aureus [20]): -2.5 deltalog10CFU; solubility [21]: 340 µg/mL (≈ 864 µM); Vd [22]: 0.65 L/kg; logD [23]: 3.1; bioavailability [24]: 30%; Activity (Staphylococcus aureus [25]): Dose-dependent effect; clearance [26]: 32 mL/min/kg; fraction unbound [27]: 0.035; IC50 [28]: 125 nM; MIC (Staphylococcus aureus [29]): 0.06 µg/mL (≈ 0.152 µM); half-life [30]: 36 min; Cmax [31]: 287 ng/mL; Tmax [32]: 15 min; AUC at 24 h [33]: 45300 ng·h/mL; solubility [34]: 20 µg/mL (≈ 50.8 µM); AUC at 24 h [35]: 261 ng·h/mL; inhibition at 0.05 h, 10 µM (hERG (KCNH2)): 67%; IC50 [18]: 125 nM
